{"source": "patent US7402575B2", "about": "“Methods of treating inflammation” (priority 2003, dated 2008)", "key": {"[1]": {"system": "right ventricular trabecular preparation", "assay": "Adrenergic response to field stimulation or isoproterenol in right ventricular trabecular preparation", "assay_type": "cell-based, dog", "conditions": "TAC 10^−4M", "source_text": "Since myocardial depression in sepsis may also be related to a diminished sympathetic response, the possible role of Lzm-S in contributing to this effect was additionally investigated in the right ventricular preparation as previously described (18). Neural adrenergic stimulation was produced in which the pulse width of the electrical stimulus-trains was increased from 2 ms to 20 ms, keeping other stimulus parameters unchanged. The increase in tension seen with sympathetic nerve stimulation was calculated as a percent increase from basal twitch amplitude. In the protocol used, the adrenergic response was measured before and after 10^−10M, 10^−9M, and 10^−8M Lzm-S were added to the organ bath. The results obtained with Lzm-S were compared with those obtained in time control experiments in which equal volumes of KH were added to the preparation at identical intervals. In a second set of experiments, it was observed whether TAC prevented the decrease in the adrenergic response produced by Lzm-S. Either TAC (10^−4M) or KH was added to an organ bath, and the results obtained with TAC treatment were compared with those obtained without the addition of the inhibitor. […]"}, "Datura stramonium lectin": {"system": "Datura stramonium lectin", "assay": "Inhibition by TAC of lectin-induced depression of isometric tension in right ventricular trabecular preparation", "assay_type": "cell-based, dog", "conditions": "TAC 10^−4M pre-treatment", "procedure": "After baseline tension was determined, either the lectin or placebo was placed into respective organ baths. The concentrations of the lectins used were 10^−8M, 10^−7M, and 10^−6M based on the concentration of lysozyme found in sepsis that averaged approximately 10^−8M. In the case of Datura stramonium lectin, moreover, the effect of TAC on inhibiting the myocardial depression caused by this lectin was also examined. […] Measurements were obtained at 5 minute intervals. The changes in isometric tension measured from baseline were compared between the lectin treated and placebo preparations.\nLectins are nonenzymatic proteins that bind to carbohydrates and can be classified by their specificity for a particular sugar or polysaccharide (42). […] After baseline tension was determined, either the lectin or placebo (i.e. KH) was placed into respective organ baths in which the concentrations of the lectins used were similar to those described for Lzm-S. In the case of DSL, moreover, it was assessed whether TAC could also prevent the depression caused by this lectin."}}, "note": "“Also recorded” adds a separate entry of the source."}
{"smiles": "CC(=O)N[C@H]1[C@H](O[C@H]2[C@H](O)[C@@H](NC(C)=O)C(O)O[C@@H]2CO)O[C@H](CO)[C@@H](O[C@@H]2O[C@H](CO)[C@@H](O)[C@H](O)[C@H]2NC(C)=O)[C@@H]1O", "note": "(some centres unmarked) [TAC, N,N′,N″ triacetylglucosamine]", "values": [{"measurement": "Effect of pretreatment on the reduction in adrenergic response caused by Lzm-S", "setting": "[1]", "value": "prevented the reduction in adrenergic response"}, {"measurement": "Effect of TAC on myocardial depression caused by Datura stramonium lectin", "setting": "Datura stramonium lectin", "value": "markedly attenuated; also recorded: could be reversed by pre-treatment with TAC; also recorded: blocked the isometric depression"}]}
